One compound from patent publication US4084006A, “Method of using dialkylphenols an antiviral agents” (priority 1977, dated 1978) can be followed below.

This assay concerns San Carlos virus. Briefly: Inhibition of cytopathic activity (CPE) of San Carlos virus in HEL tissue culture. The assay is classed as cell-based, San Carlos virus (adenovirus). As to conditions: for CPE with 100 TCID50 doses of San Carlos virus: HEL cells. The procedure: The anti-viral activity of 2,4-dimethylphenol was studied in the following manner. Tissue cultures derived from human embryonic lung (HEL) were grown and maintained as monolayers in 32 ounce prescription bottles using growth medium consisting of 85% synthetic mixture No. 199 plus 15% unfiltered fetal bovine serum (FBS) adjusted to pH 7.4. Tube cultures of HEL cells were prepared in similar fashion and used in assays for anti-viral activity. During chemotherapy tests, the maintenance medium consisted of synthetic mixture No. 199 with 7.5% FBS. The virus spectrum in tissue culture consisted of two DNA viruses, a San Carlos virus isolated by Davis [see Science 133, 2059, 1961] and later identified as an adenovirus, and the HF strain of herpes simplex virus. In addition, a RNA virus represented by measles was included in the examples.
In performing the initial assays, the tissue cultures were treated prophylactically and the virus was treated in vitro with decreasing 2,4-dimethylphenol concentrations ranging from […] (2 × 10^-6) to 2 attograms (ag) (2 × 10^-18) per ml. The procedure consisted of pretreating tube cultures of HEL cells for two to three days with growth medium containing varying concentrations of 2,4-dimethylphenol. After the prophylactic treatment, the test fluids were removed and replaced with fresh maintenance medium. At this time, 200 TCID50 doses of virus were mixed in vitro with the same decreasing concentrations of the distillate used to pretreat the cells, then the mixture was inoculated into replicate culture of HEL cells so that the final incolum consisted of 100 TCID50 doses of virus in tubes with 2,4-dimethylphenol at the same level used to prophylactically treat the cells.
The same number of infected control tubes were handled in the same way except that 2,4-dimethylphenol was omitted from all media. Culture tubes were rotated at 37° C. and examined daily for a period of 7 days for cytopathic activity (CPE). […] By the same token, the CPE of herpes virus was inhibited by both the 10^-12 and 10^-15 level, possibly indicating two active components. […]
(In general: Protection from cytopathic effect is a common read-out in antiviral testing.)

Structures are written as SMILES.

`Cc1ccc(O)c(C)c1` [2,4-dimethylphenol]: the “CPE with 100 TCID50 doses of San Carlos virus” value by setting is: (2,4-dimethylphenol 10^-4 grams 2X) 4+ (100% of cells infected with selected virus); (10^-5 grams 2X) 2+ (50% of cells infected with selected virus); (10^-6 grams 2X) 2+ (50% of cells infected with selected virus); (10^-7 grams 2X) 1+ (25% of cells infected with selected virus); (10^-8 grams 2X) 1+ (25% of cells infected with selected virus); (10^-9 grams 2X) 1+ (25% of cells infected with selected virus). Moreover, the “CPE with 100 TCID50 doses of San Carlos virus” value is reported as 1+ (25% of cells infected with selected virus) (10^-10 grams 2X); 1+ (25% of cells infected with selected virus) (10^-11 grams 2X); 2+ (50% of cells infected with selected virus) (10^-12 grams 2X); 2+ (50% of cells infected with selected virus) (10^-13 grams 2X); 3+ (75% of cells infected with selected virus) (10^-14 grams 2X). The “inhibition of CPE produced by San Carlos virus” value (picograms, 10^-10 to 10^-12 per ml of medium) is on record as “slight but consistent inhibition”.
